# Experiments:
# [1] = in vivo; design: species or system Beagle Dogs; conditions: dog, po, 10 mg/kg; for AUC(0-inf): AUCINF of EX-1/NHC/CH2018; for AUC(0-t): AUClast of EX-1/NHC/CH2018; for Cmax: Cmax of EX-1/NHC/CH2018; for half-life: T1/2 of EX-1/NHC/CH2018; for Tmax: Tmax of EX-1/NHC/CH2018
# Procedure: Example 174: Pharmacokinetic Study of EX-2 (CH2101), Molnupiravir (CH2017) and its Metabolite NHC (CH2018) Following a Single PO Administration of EX-2 (CH2101) or Molnupiravir (CH2017) in Male and Female Beagle Dogs
# Both test compounds were prepared in 1% methyl cellulose (400 cps, SIGMA, SLCF9694) solution in purified water.
# A total of 6 male+6 female Beagle Dogs, approximately 7-13 kg of bodyweight, were originally purchased from Marshall Biotechnology Co., Ltd. The animals were fasted overnight prior to dosing and food was re-provided after 4 hours post dosing.
# The animals were restrained manually, and approximately 1 mL of blood at each time point was collected into pre-cooled EDTA-K2 tubes via cephalic or saphenous veins. Blood samples were centrifuged at 4° C. (4000 rpm. 5 min) to obtain plasma within 30 min after sample collection. All samples were stored at approximately −80° C. until analysis. The backup samples will be discarded after the in vivo experiment has been completed for two months unless requested.
# [2] = in vitro; type: in vitro ADME; conditions: microsomes; for half-life at 1 µM: pH 7.4
# Procedure: (§1) Preparation of Solutions: Stock solution (10 mM) of each of test compounds was prepared in DMSO. The stock solution for each compound was then diluted into 100 μM with acetonitrile.
# (§2) Microsome Incubations: Incubation mixtures were prepared in a total volume of 200 μL with final component concentrations as follows: 0.1M PBS (pH 7.4), NADPH (2 mM) and liver microsomes (0.2 mg/mL) as well as test compound (1 μM) or Molnupiravir (1 μM) as a positive control, wherein the NADPH was added after a 5-min preincubation of all other components at 37° C. Pipette-mixed to achieve a homogenous suspension and immediately transferred 20 μL incubate as a 0 min sample to wells in a “Quenching” plate followed by adding 200 μL of acetonitrile with metolazone as IS and pipette-mixing. At 2, 5, 10, and 45 min, pipette-mixed the incubate and serially transfer samples of 20 μL incubate per time point to wells in a separate “Quenching” plate followed by adding 200 μL of acetonitrile with metolazone as IS and pipette-mixing.
# (§3) Sample Analysis: The 96-well plate was centrifuged at 6000 g for 10 min. The supernatant was injected onto the LC-MS/MS system for analysis.
# [3] = in vitro; type: in vitro ADME; conditions: plasma
# Procedure: as §1
# Plasma Incubations: Plasma incubations were conducted in duplicate in 96-well plate at 37° C. Plasma was prewarmed in a total volume of 198 μL for 5 min at 37° C., then added 2 μL of 100 μM test compound into an incubation well containing plasma, pipette-mixed to achieve a homogenous suspension and immediately transferred 20 μL incubate as a 0 min sample to wells in a “Quenching” plate followed by adding 200 μL of acetonitrile with metolazone as internal standard (IS) and pipette-mixing. At 2, 5, 60, and 90 min, pipette-mixed the incubate and serially transfer samples of 20 μL incubate per time point to wells in a separate “Quenching” plate followed by adding 200 μL of acetonitrile with metolazone as IS and pipette-mixing.
# as §3
# [4] = Microsome stability; type: in vitro ADME, Monkey; conditions: monkey, microsomes, pH 7.4
# Procedure: as §1, §2, §3
# [5] = test system: SARS-CoV-2, Hongkong strain; type: in vivo, K18 hACE2 transgenic mice
# [6] = Remdesivir 25 mpk SC twice daily
smiles,measurement,setting,value
"O=c1nc(NO)ccn1[C@@H]1O[C@H](CO)[C@@H](O)[C@H]1O [EX-1/NHC/CH2018, NHC]",AUC(0-inf),"[1]; both sexes, beagle",9680 ng·h/mL
same,AUC(0-t),"[1]; both sexes, beagle",9580 ng·h/mL
same,Cmax,"[1]; both sexes, beagle",4780 ng/mL
same,half-life,"[1]; both sexes, beagle",227 min
same,Tmax,"[1]; both sexes, beagle",52.5 min
same,AUCmale/female of EX-1/NHC/CH2018,"[1]; both, Beagle",158%
same,AUCINF of EX-1/NHC/CH2018,"[1]; female, beagle",7683 ng·h/mL
same,AUClast of EX-1/NHC/CH2018,"[1]; female, beagle",7632 ng·h/mL
same,Cmax of EX-1/NHC/CH2018,"[1]; female, beagle",3940 ng/mL
same,T1/2 of EX-1/NHC/CH2018,"[1]; female, beagle",63.6 min
same,AUC(0-inf),"[1]; female, beagle",7310 ng·h/mL
same,AUC(0-t),"[1]; female, beagle",7220 ng·h/mL
same,Cmax,"[1]; female, beagle",4550 ng/mL
same,half-life,"[1]; female, beagle",76.8 min
same,Tmax,"[1]; female, beagle",60 min
same,AUCINF of EX-1/NHC/CH2018,"[1]; male, beagle",11046 ng·h/mL
same,AUClast of EX-1/NHC/CH2018,"[1]; male, beagle",10957 ng·h/mL
same,Cmax of EX-1/NHC/CH2018,"[1]; male, beagle",5240 ng/mL
same,T1/2 of EX-1/NHC/CH2018,"[1]; male, beagle",343 min
same,Tmax of EX-1/NHC/CH2018,"[1]; male, beagle",30 min
same,AUC(0-inf),"[1]; male, beagle",12700 ng·h/mL
same,AUC(0-t),"[1]; male, beagle",12500 ng·h/mL
same,Cmax,"[1]; male, beagle",5380 ng/mL
same,half-life,"[1]; male, beagle",425 min
same,Tmax,"[1]; male, beagle",60 min
CC(C)C(=O)ONc1ccn([C@@H]2O[C@H](CO)[C@@H](O)[C@H]2O)c(=O)n1 [EX-3],half-life at 1 µM,[2]; dog,33.8 min
same,half-life at 1 µM,[2]; human,13.5 min
same,half-life at 1 µM,[2]; mouse,6.8 min
same,half-life at 1 µM,[2]; rat,46.6 min
same,half-life at 1 µM,[3]; dog,21.2 min
same,half-life at 1 µM,[3]; human,2.8 min
same,half-life at 1 µM,[3]; monkey,3.2 min
same,half-life at 1 µM,[3]; mouse,0.6 min
same,half-life at 1 µM,[3]; rat,25.9 min
same,half-life at 1 µM,[4],4.4 min
O=C(ONc1ccn([C@@H]2O[C@H](CO)[C@@H](O)[C@H]2O)c(=O)n1)C1CC1 [EX-15],half-life at 1 µM,[2]; dog,132 min
same,half-life at 1 µM,[2]; human,67.3 min
same,half-life at 1 µM,[2]; mouse,15.4 min
same,T1/2,[2]; rat,∞
same,half-life at 1 µM,[3]; dog,109 min
same,half-life at 1 µM,[3]; human,5.8 min
same,half-life at 1 µM,[3]; monkey,16.5 min
same,half-life at 1 µM,[3]; mouse,5.2 min
same,half-life at 1 µM,[3]; rat,88.9 min
same,half-life at 1 µM,[4],25 min
COC(C)(C)C(=O)ONc1ccn([C@@H]2O[C@H](CO)[C@@H](O)[C@H]2O)c(=O)n1 [EX-53],half-life at 1 µM,[2]; dog,87.5 min
same,half-life at 1 µM,[2]; human,86.6 min
same,half-life at 1 µM,[2]; mouse,17.1 min
same,half-life at 1 µM,[2]; rat,70.5 min
same,half-life at 1 µM,[3]; dog,156 min
same,half-life at 1 µM,[3]; human,4.8 min
same,half-life at 1 µM,[3]; monkey,9.8 min
same,half-life at 1 µM,[3]; mouse,3.1 min
same,half-life at 1 µM,[3]; rat,94.3 min
same,half-life at 1 µM,[4],7.3 min
CCC(CC)COC(=O)[C@H](C)N[P@](=O)(OC[C@H]1O[C@@](C#N)(c2ccc3c(N)ncnn23)[C@H](O)[C@@H]1O)Oc1ccccc1 [Remdesivir],Survival proportions,"[5]; 14-day study, twice daily days 0-6, CH2101 450 mg/kg PO, Remdesivir 25 mg/kg SC",0%
same,Body weight loss observed from day,[5]; [6],2 days
same,Gross clinical symptoms appear from day,[5]; [6],6 days
same,Max clinical symptom score (mean value),[5]; [6],2
same,Prolonged survival time,"[5]; compared with vehicle group (group 1), Remdesivir 25 mg/kg SC",20%
same,"Virus titer in lung, comparison with Remdesivir group (mean difference)",[5]; day 5,2.47
same,Virus titer in lung,"[5]; day 5, plaque assay, mean, twice daily days 0-4, CH2101 450 mpk PO, Remdesivir 25 mpk SC",5.11 Log 10 plaque#/g lung
same,"Virus titer in lung, mean difference vs. group 1 (Vehicle group)","[5]; day 5, CH2101 450 mpk PO, Remdesivir 25 mpk SC",0.83 Log
same,Body weight change,"[5]; day 6, normalized to day 0, Remdesivir 25 mpk SC twice daily",−13.6%
same,Median survival time,"[5]; twice daily days 0-6, CH2101 450 mg/kg PO, Remdesivir 25 mg/kg SC",6 days
